Measurements published in PubChem BioAssay AID256 (DTP/NCI, 2004).
Inconclusive results and toxic doses are left out. The calls were made as follows: active = survival T/C of 150% or more; inactive = T/C below 125% in these data.

Tested on: CD2F1 mice, L1210 leukemia ip, survival T/C
Assay: NCI In Vivo Anticancer Drug Screen. Data for tumor model L1210 Leukemia (intraperitoneal) in CD2F1 (CDF1) mice
Conditions: endpoint: mean survival time, schedule: Q01DX009 (ip), vehicle: water, higher = longer survival
Procedure, shortened: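 Tumor-bearing mice (transplanted tumor) were split into treated and vehicle control groups, and the measured endpoint of each treated group was divided by that of its vehicle controls.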

Measured: T/C

COc1ccc(CC(=O)NC(C)Cc2ccc(OC)c(OC)c2)cc1OC (stereo not given)
inactive: dose: 12.5 mg/kg/injection 91 % of control | dose: 25.0 mg/kg/injection 89 % of control | dose: 50.0 mg/kg/injection 95 % of control | dose: 100.0 mg/kg/injection 94 % of control | dose: 200.0 mg/kg/injection 91 % of control
